Experimental data as given in US20210259246A1, “SUBSTITUTED 4-HETEROARYLOXYPYRIDINES AND SALTS THEREOF AND THEIR USE AS HERBICIDAL AGENTS” (BAYER AKTIENGESELLSCHAFT, priority 2018, published 2021).

What was measured:
Format in all cases: in vivo
[1] = tested on: Abutilon theophrasti (ABUTH); experiment: Herbicidal post-emergence action; conditions: 1280 g/ha; rated visually about 3 weeks after treatment vs untreated controls; 100% = plants have died, 0% = like control plants
Experimental: (§1) Seeds of mono- and dicotyledonous weed plants were placed in plastic pots in sandy loam soil (doubly sown with in each case one species of mono- or dicotyledonous weed plants per pot), covered with soil and cultivated in a greenhouse under controlled growth conditions. 2 to 3 weeks after sowing, the test plants were treated at the one-leaf stage. The compounds of the invention, formulated in the form of wettable powders (WP) or as emulsion concentrates (EC), were applied onto the green parts of the plants as aqueous suspension or emulsion with addition of 0.5% additive at a water application rate of 600 liters per hectare (converted). After the test plants had been kept in the greenhouse under optimum growth conditions for about 3 weeks, the activity of the preparations was rated visually in comparison to untreated controls. For example, 100% activity=the plants have died, 0% activity=like control plants. Tables B1 to B6 below show the effects of selected compounds of the general formula (I) according to Table 1 on various harmful plants and an application rate corresponding to 1280 g/ha, which were obtained by the experimental procedure mentioned above.

[2] = tested on: Echinochloa crus-galli (ECHCG); experiment: Herbicidal post-emergence action; conditions: 1280 g/ha; rated visually about 3 weeks after treatment vs untreated controls; 100% = plants have died, 0% = like control plants
Experimental: as §1

[3] = tested on: Amaranthus retroflexus (AMARE); experiment: Herbicidal post-emergence action; conditions: 1280 g/ha; rated visually about 3 weeks after treatment vs untreated controls; 100% = plants have died, 0% = like control plants
Experimental: as §1

[4] = tested on: Stellaria media (STEME); experiment: Herbicidal post-emergence action; conditions: 1280 g/ha; rated visually about 3 weeks after treatment vs untreated controls; 100% = plants have died, 0% = like control plants
Experimental: as §1

[5] = tested on: Abutilon theophrasti (ABUTH); experiment: Herbicidal pre-emergence action; conditions: 1280 g/ha; scored visually after about 3 weeks vs untreated controls; 100% = plants have died, 0% = like control plants
From the text: (§2) Seeds of mono- and dicotyledonous weed plants were placed in plastic pots in sandy loam soil (doubly sown with in each case one species of mono- or dicotyledonous weed plants per pot) and covered with soil. The compounds of the invention, formulated in the form of wettable powders (WP) or as emulsion concentrates (EC), were then applied onto the surface of the covering soil as aqueous suspension or emulsion with addition of 0.5% additive at a water application rate of 600 liters per hectare (converted). After the treatment, the pots were placed in a greenhouse and kept under good growth conditions for the test plants. After about 3 weeks, the effect of the preparations was scored visually in comparison with untreated controls as percentages. For example, 100% activity=the plants have died, 0% activity=like control plants. Tables C1 to C8 below show the effects of selected compounds of the general formula (I) according to Table 1 on various harmful plants and an application rate corresponding to 1280 g/ha, which were obtained by the experimental procedure mentioned above.

[6] = tested on: Lolium rigidum (LOLRI); experiment: Herbicidal pre-emergence action; conditions: 1280 g/ha; scored visually after about 3 weeks vs untreated controls; 100% = plants have died, 0% = like control plants
From the text: as §2

[7] = tested on: Echinochloa crus-galli (ECHCG); experiment: Herbicidal pre-emergence action; conditions: 1280 g/ha; scored visually after about 3 weeks vs untreated controls; 100% = plants have died, 0% = like control plants
From the text: as §2

[8] = tested on: Poa annua (POAAN); experiment: Herbicidal pre-emergence action; conditions: 1280 g/ha; scored visually after about 3 weeks vs untreated controls; 100% = plants have died, 0% = like control plants
From the text: as §2

[9] = tested on: Amaranthus retroflexus (AMARE); experiment: Herbicidal pre-emergence action; conditions: 1280 g/ha; scored visually after about 3 weeks vs untreated controls; 100% = plants have died, 0% = like control plants
From the text: as §2

[10] = tested on: Setaria viridis (SETVI); experiment: Herbicidal pre-emergence action; conditions: 1280 g/ha; scored visually after about 3 weeks vs untreated controls; 100% = plants have died, 0% = like control plants
From the text: as §2

[11] = tested on: Matricaria inodora (MATIN); experiment: Herbicidal pre-emergence action; conditions: 1280 g/ha; scored visually after about 3 weeks vs untreated controls; 100% = plants have died, 0% = like control plants
From the text: as §2

[12] = tested on: Stellaria media (STEME); experiment: Herbicidal pre-emergence action; conditions: 1280 g/ha; scored visually after about 3 weeks vs untreated controls; 100% = plants have died, 0% = like control plants
From the text: as §2

[13] = tested on: Poa annua (POAAN); experiment: Herbicidal post-emergence action; conditions: 1280 g/ha; rated visually about 3 weeks after treatment vs untreated controls; 100% = plants have died, 0% = like control plants
Experimental: as §1

[14] = tested on: Setaria viridis (SETVI); experiment: Herbicidal post-emergence action; conditions: 1280 g/ha; rated visually about 3 weeks after treatment vs untreated controls; 100% = plants have died, 0% = like control plants
Experimental: as §1

[15] = tested on: Agrostis tenuis (AGSTE); experiment: Herbicidal early post-emergence action; conditions: 1900 g/ha; scored visually 9 to 12 days after treatment vs untreated controls; 100% = plants have died, 0% = like control plants
Experimental: (§3) Seeds of monocotyledonous or dicotyledonous weed plants were placed in 96-well microtiter plates in quartz sand and grown in a climatized chamber under controlled growth conditions. 5 to 7 days after sowing, the test plants were treated at the cotyledon stage. The compounds according to the invention, formulated in the form of emulsion concentrates (EC), were applied with a water application rate of the equivalent of 2200 liters per hectare. After the test plants had been left to stand in the climatized chamber for 9 to 12 days under optimum growth conditions, the effect of the preparations was scored visually in comparison to untreated controls. For example, 100% activity=the plants have died, 0% activity=like control plants. Tables A1 to A6 below show the effects of selected compounds of the general formula (I) according to Table 1 on various harmful plants and an application rate corresponding to 1900 g/ha, which were obtained by the experimental procedure mentioned above.

[16] = tested on: Veronica persica (VERPE); experiment: Herbicidal early post-emergence action; conditions: 1900 g/ha; scored visually 9 to 12 days after treatment vs untreated controls; 100% = plants have died, 0% = like control plants
Experimental: as §3

[17] = tested on: Diplotaxis muralis (DIPTE); experiment: Herbicidal early post-emergence action; conditions: 1900 g/ha; scored visually 9 to 12 days after treatment vs untreated controls; 100% = plants have died, 0% = like control plants
Experimental: as §3

[18] = tested on: Poa annua (POAAN); experiment: Herbicidal early post-emergence action; conditions: 1900 g/ha; scored visually 9 to 12 days after treatment vs untreated controls; 100% = plants have died, 0% = like control plants
Experimental: as §3

[19] = tested on: Setaria viridis (SETVI); experiment: Herbicidal early post-emergence action; conditions: 1900 g/ha; scored visually 9 to 12 days after treatment vs untreated controls; 100% = plants have died, 0% = like control plants
Experimental: as §3

[20] = tested on: Lolium perenne (LOLPE); experiment: Herbicidal early post-emergence action; conditions: 1900 g/ha; scored visually 9 to 12 days after treatment vs untreated controls; 100% = plants have died, 0% = like control plants
Experimental: as §3

SMILES | Post-emergence action against Abutilon theophrasti (ABUTH) [1] [%] | Post-emergence action against Echinochloa crus-galli (ECHCG) [2] [%] | Post-emergence action against Amaranthus retroflexus (AMARE) [3] [%] | Post-emergence action against Stellaria media (STEME) [4] [%] | Pre-emergence action against Abutilon theophrasti (ABUTH) [5] [%] | Pre-emergence action against Lolium rigidum (LOLRI) [6] [%] | Pre-emergence action against Echinochloa crus-galli (ECHCG) [7] [%] | Pre-emergence action against Poa annua (POAAN) [8] [%] | Pre-emergence action against Amaranthus retroflexus (AMARE) [9] [%] | Pre-emergence action against Setaria viridis (SETVI) [10] [%] | Pre-emergence action against Matricaria inodora (MATIN) [11] [%] | Pre-emergence action against Stellaria media (STEME) [12] [%] | Post-emergence action against Poa annua (POAAN) [13] [%] | Post-emergence action against Setaria viridis (SETVI) [14] [%] | Early post-emergence action against Agrostis tenuis (AGSTE) [15] [%] | Early post-emergence action against Veronica persica (VERPE) [16] [%] | Early post-emergence action against Diplotaxis muralis (DIPTE) [17] [%] | Early post-emergence action against Poa annua (POAAN) [18] [%] | Early post-emergence action against Setaria viridis (SETVI) [19] [%] | Early post-emergence action against Lolium perenne (LOLPE) [20] [%]
Cc1cc(Oc2ncc(Cl)cn2)c(Sc2ccc(F)c(F)c2)c(C)n1 [Example 1-27] | 90 | 100 | 100 | 100 | 90 | 100 | 100 | 100 | 100 | 100 | 100 | 100 |  |  |  |  |  |  |  | 
Cc1cc(Oc2ncc(Cl)cn2)c(Sc2cccc(C(F)(F)F)c2)c(C)n1 [Example 1-28] |  |  | 90 | 100 |  |  |  | 90 | 90 |  | 90 | 100 | 100 |  |  |  |  |  |  | 
Cc1cc(Oc2ncc(Cl)cn2)c(Sc2ccc(C#N)cc2)c(C)n1 [Example 1-30] |  | 100 |  | 100 | 90 | 90 | 100 | 100 | 100 | 90 | 90 | 100 | 100 |  |  |  |  |  |  | 
Cc1cc(Oc2ncc(Cl)cn2)c(Sc2ccc(F)cc2)c(C)n1 [Example 1-26, 2,6-Dimethyl-3-(4-fluorophenylthio)-4-(5-chloropyrimidin-2-yloxy)pyridine] | 100 | 100 | 100 | 100 | 100 | 100 | 100 | 100 | 100 | 100 | 100 | 100 | 100 | 90 |  |  |  |  |  | 
COC(=O)c1cc(Oc2ncc(Cl)cn2)c(Sc2ccc(F)cc2)c(C(=O)OC)n1 [Example 1-50] |  |  |  |  |  |  |  |  |  |  |  |  |  |  | 80 |  |  |  |  | 
Cc1nccc(Oc2ncc(F)cn2)c1Oc1ncc(F)cn1 [Example 1-91] |  |  |  |  |  |  |  |  | 100 |  | 90 | 90 |  |  |  |  |  |  |  | 
Cc1nccc(Oc2ncc(Cl)cn2)c1Sc1ccc(F)cc1 [Example 1-86] |  |  |  |  |  |  |  |  |  |  |  |  |  |  | 100 | 80 | 80 | 100 | 80 | 80
